Experimental data: article PMC7181201, “Dual P-Glycoprotein and CA XII Inhibitors: A New Strategy to Reverse the P-gp Mediated Multidrug Resistance (MDR) in Cancer Cells” (Molecules, 2020)

Columns and labels:
[1] = system: K562/DOX cells; assay: Enhancement of doxorubicin cytotoxicity on K562/DOX cells (MTT); format: cell-based, human; conditions: 72 h
Method: (§1) To evaluate the enhancement of doxorubicin toxicity in the presence of the tested compounds, the cells, in exponential growth phase, were seeded at 10^4 cells/well and solutions of either compounds or doxorubicin, or a solution of doxorubicin in combination with the compounds, were added to the wells repeated in quadruplicate. […] The MTT working solution was then added and plates were further incubated for 3 h. Following incubation cells and formazan crystals were inspected microscopically. The supernatant was then carefully removed by slow aspiration and the formazan crystals were dissolved in […] of acidified isopropanol solution. The absorbance of the solution was then read on an automated plate reader at a wavelength of 570 nm. The increase in the toxicity of doxorubicin was quantified by the ratio between the growth of the cell sample treated with IC20 of doxorubicin and that of the cell sample treated with IC20 of doxorubicin in combination with the various concentrations of the tested compounds.

[2] = molecular target: T1, hCA I (Homo sapiens, UniProt P00915); assay: Stopped-flow CO2 hydrase assay, hCA I; format: biochemical; conditions: mean from 3 assays
T1 construct: made in house
T1 sequence (P00915 whole entry): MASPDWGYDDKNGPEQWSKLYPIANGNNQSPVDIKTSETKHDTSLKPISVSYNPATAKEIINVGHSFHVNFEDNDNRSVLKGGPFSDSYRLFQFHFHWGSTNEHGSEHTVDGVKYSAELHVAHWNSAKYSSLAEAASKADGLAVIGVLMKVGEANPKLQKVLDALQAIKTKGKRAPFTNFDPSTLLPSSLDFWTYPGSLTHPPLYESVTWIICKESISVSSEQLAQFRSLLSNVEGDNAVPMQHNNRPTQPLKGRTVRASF
Method: (§2) An SX.18MV-R Applied Photophysics (Oxford, UK) stopped-flow instrument was used to assay the catalytic/inhibition of various CA isozymes. […] Saturated CO2 solutions in water at 25 °C were used as a substrate. Stock solutions of inhibitors were prepared at a concentration of 10 μM (in DMSO-water 1:1, v/v) and dilutions up to 0.01 nM done with the assay buffer mentioned above. […] Inhibitor and enzyme solutions were preincubated together for 10 min at room temperature prior to the assay, in order to allow for the formation of the E–I complex. […] The inhibition constants were obtained by non-linear least-squares methods using the Cheng–Prusoff equation, as reported earlier, and represent the mean from at least three different determinations. All CA isozymes used here were recombinant proteins obtained as reported earlier by our group.

[3] = molecular target: T2, P-gp (Homo sapiens, UniProt P08183); assay: Rhodamine-123 uptake test on K562/DOX cells (flow cytometry); format: cell-based
T2 construct: doxorubicin resistant K562/DOX cell line overexpresses almost exclusively the transporter membrane protein P-gp; endogenous in cells; host or cells: K562/DOX (doxorubicin-selected human erythroleukemia cells)
T2 sequence (P08183 whole entry): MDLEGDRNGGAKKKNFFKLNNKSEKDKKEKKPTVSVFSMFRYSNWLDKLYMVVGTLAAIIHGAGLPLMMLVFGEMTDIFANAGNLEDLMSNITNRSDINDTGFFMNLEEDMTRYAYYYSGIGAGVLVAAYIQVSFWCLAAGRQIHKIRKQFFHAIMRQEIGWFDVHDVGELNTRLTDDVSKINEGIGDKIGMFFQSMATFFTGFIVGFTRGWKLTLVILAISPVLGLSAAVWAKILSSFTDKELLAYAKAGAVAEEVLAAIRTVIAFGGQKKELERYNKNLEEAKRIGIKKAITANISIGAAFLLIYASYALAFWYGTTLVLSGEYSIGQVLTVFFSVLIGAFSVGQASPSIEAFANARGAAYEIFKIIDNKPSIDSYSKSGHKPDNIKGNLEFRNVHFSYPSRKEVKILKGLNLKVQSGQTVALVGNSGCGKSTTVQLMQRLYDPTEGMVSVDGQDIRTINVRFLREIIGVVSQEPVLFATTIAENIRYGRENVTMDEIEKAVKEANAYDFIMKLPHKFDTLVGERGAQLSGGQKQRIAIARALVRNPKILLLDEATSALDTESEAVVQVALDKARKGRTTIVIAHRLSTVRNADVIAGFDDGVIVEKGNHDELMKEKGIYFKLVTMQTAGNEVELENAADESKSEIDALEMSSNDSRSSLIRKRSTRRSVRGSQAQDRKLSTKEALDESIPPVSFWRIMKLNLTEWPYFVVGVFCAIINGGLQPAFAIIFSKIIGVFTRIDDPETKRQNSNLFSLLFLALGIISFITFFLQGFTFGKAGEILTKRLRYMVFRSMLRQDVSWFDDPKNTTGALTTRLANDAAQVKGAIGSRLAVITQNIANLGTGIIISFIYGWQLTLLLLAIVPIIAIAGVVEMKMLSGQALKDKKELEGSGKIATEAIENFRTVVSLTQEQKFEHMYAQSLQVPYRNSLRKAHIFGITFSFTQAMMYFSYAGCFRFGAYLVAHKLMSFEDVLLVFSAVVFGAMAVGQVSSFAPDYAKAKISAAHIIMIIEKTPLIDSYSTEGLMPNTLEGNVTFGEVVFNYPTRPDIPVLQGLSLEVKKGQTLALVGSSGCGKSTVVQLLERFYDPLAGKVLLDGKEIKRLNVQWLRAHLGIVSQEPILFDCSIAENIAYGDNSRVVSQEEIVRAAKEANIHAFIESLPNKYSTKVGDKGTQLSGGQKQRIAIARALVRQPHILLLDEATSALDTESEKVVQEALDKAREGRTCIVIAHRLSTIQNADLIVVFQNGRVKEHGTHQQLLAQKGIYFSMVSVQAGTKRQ
Method: The results were expressed as the FR (fluorescence ratio), which is the ratio between the average fluorescence intensity of rhodamine in the presence and in the absence of modulators. Value 1 was attributed to the average fluorescence intensity of the samples exposed only to rhodamine.
(§3) An aliquot of cells (control) was incubated with the fluorochrome in the absence of inhibitors.
(§4) At the end of the uptake, cells were sedimented, washed twice in ice-cold PBS, placed in PBS on ice, and kept in the dark until flow cytometric analysis.
(§5) The histograms were generated by program GraphPad Prism 5 (GraphPad Prism software, Inc., San Diego, CA, USA); the data were obtained from the ratio between the average fluorescence intensity of the samples preincubated with the compounds under study and subsequently exposed to rhodamine, and the fluorescence of the sample exposed only to the rhodamine.

[4] = system: LoVo/DOX cells; assay: Enhancement of doxorubicin cytotoxicity on LoVo/DOX cells (MTT); format: cell-based, human; conditions: 72 h
Method: as §1

[5] = molecular target: T3, hCA XII (Homo sapiens, UniProt O43570); assay: Stopped-flow CO2 hydrase assay, hCA XII; format: biochemical; conditions: stopped flow, mean from 3 assays
T3 construct: made in house
T3 sequence (O43570 25-354): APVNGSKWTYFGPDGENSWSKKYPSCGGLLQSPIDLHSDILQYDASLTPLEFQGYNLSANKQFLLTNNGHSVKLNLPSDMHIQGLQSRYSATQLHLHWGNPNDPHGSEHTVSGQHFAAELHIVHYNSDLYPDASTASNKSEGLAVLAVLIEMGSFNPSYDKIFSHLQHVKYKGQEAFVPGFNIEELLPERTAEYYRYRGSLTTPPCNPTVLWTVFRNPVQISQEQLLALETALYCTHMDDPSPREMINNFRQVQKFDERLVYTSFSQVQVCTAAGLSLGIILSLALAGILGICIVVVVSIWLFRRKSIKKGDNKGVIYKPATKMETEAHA
Method: as §2

[6] = molecular target: T2, P-gp; assay: Rhodamine-123 uptake test on LoVo/DOX cells (flow cytometry); format: cell-based; conditions: compound 3 µM
Method: The selected compounds were preliminary studied at 3, 10 and 30 µM concentrations by the MTT (3-(4,5-dimethylthiazolyl-2)-2,5-diphenyltetrazolium bromide) assay to evaluate their intrinsic cytotoxicity on LoVo/DOX cell line.
as §3, §4, §5

[7] = molecular target: T4, hCA IX (Homo sapiens, UniProt Q16790); assay: Stopped-flow CO2 hydrase assay, hCA IX; format: biochemical; conditions: stopped flow, mean from 3 assays
T4 construct: made in house
Method: as §2

[8] = molecular target: T5, hCA II (Homo sapiens, UniProt P00918); assay: Stopped-flow CO2 hydrase assay, hCA II; format: biochemical; conditions: stopped flow, mean from 3 assays
T5 construct: made in house
Method: as §2

[9] = system: LoVo/DOX cells; assay: Doxorubicin IC50 and IC20 evaluation on LoVo/DOX cells (MTT)
Method: (§6) For the LoVo/DOX cell line, the doxorubicin growth inhibition was determined by the MTT assay and the IC50 and IC20 values were determined. Approximately 10^4 cells/well were plated onto 96-well plates and allowed to attach for 24 h before treatment with a range of drug concentrations from 3 × 10^−11 to 3 × 10^−5 M for 3 days; each concentration was repeated four times. At the end of the incubation the cells were processed according to the MTT protocol [43] and the optical density of the chromogenic product was measured at 570 nm. IC50 and IC20 values were determined graphically from relative survival curves obtained by GraphPad Prism 5 software (GraphPad, San Diego, CA, USA).
(§7) The resistance index to doxorubicin of the two resistant cell lines was obtained from the ratio between the doxorubicin IC50 (µM) values on the resistant and parental lines.

[10] = system: K562/DOX cells; design: method as in PMID 30947123; conditions: cited from earlier work
[11] = system: LoVo cells; assay: Doxorubicin IC50 on parental LoVo cells (MTT); conditions: Homo sapiens, 72 h, read-out: doxorubicin IC50
Method: as §6, §7

[12] = doxorubicin 0.5 µM (IC20) + compound 3 µM
[13] = doxorubicin 0.5 µM (IC20) + compound 10 µM
[14] = doxorubicin 0.3 µM (IC20) + compound 3 µM
[15] = doxorubicin 0.3 µM (IC20) + compound 10 µM

SMILES | Cell Growth (%) [1, 12] | Cell Growth (%) [1, 13] | Ki [2] | FR (fluorescence ratio, Rhd 123 uptake with/without modulator) ([3]; compound 3 µM) | FR (fluorescence ratio, Rhd 123 uptake with/without modulator) ([3]; compound 30 µM) | Cell Growth (%) [4, 14] | Cell Growth (%) [4, 15] | Ki [5] | FR (fluorescence ratio, Rhd 123 uptake) [6] | Ki [7] | Ki [8] | activity at 0.5 µM ([1]; Homo sapiens, doxorubicin 0.5 µM alone, read-out: Cell Growth (%)) | IC50 ([9]; Homo sapiens, LoVo, 72 h, read-out: doxorubicin IC50) | IC20 ([9]; Homo sapiens, LoVo, read-out: doxorubicin IC20) | resistance index to doxorubicin (IC50 resistant/parental) ([9]; LoVo/DOX vs LoVo) | activity at 0.3 µM ([4]; Homo sapiens, doxorubicin 0.3 µM alone, read-out: Cell Growth (%)) | IC50 ([10]; K562/DOX cells ref 38, read-out: doxorubicin IC50) | IC20 ([10]; K562/DOX cells, extrapolated from earlier cytotoxicity curves ref 38, read-out: doxorubicin IC20) | resistance index to doxorubicin (IC50 resistant/parental) ([10]; K562/DOX vs K562 ref 38) | IC50 [11]
COc1cc(/C=C/C(=O)OCCCCCCCN(C)CCOC(=O)c2ccc(S(N)(=O)=O)cc2)cc(OC)c1OC [Compound 21, (E)-2-(methyl(7-((3-(3,4,5-trimethoxyphenyl)acryloyl)oxy)heptyl)amino)ethyl 4-sulfamoyl benzoate] | 78.8 ± 10.2% | 68.7 ± 3.6% | 533 nM | 1.30 | 3.70 | 82.0 ± 2.7% | 59.0 ± 3.3% | 35.2 nM | negligible | 68.4 nM | 48.9 nM | – | – | – | – | – | – | – | – | –
COc1cc(C(=O)OCCCCCCCN(C)CCOC(=O)c2ccc(S(N)(=O)=O)cc2)cc(OC)c1OC [Compound 25, 7-(methyl(2-((4-sulfamoylbenzoyl)oxy)ethyl)amino)heptyl 3,4,5-trimethoxybenzoate] | 80.3 ± 5.9% | 76.0 ± 3.7% | 42.7 nM | 1.44 | 3.50 | 81.7 ± 2.0% | – | 8 nM | negligible | 117 nM | 90.2 nM | – | – | – | – | – | – | – | – | –
CN(CCCCCOC(=O)c1ccc(S(N)(=O)=O)cc1)CCCOC(=O)c1c2ccccc2cc2ccccc12 [Compound 26, 3-(methyl(5-((4-sulfamoylbenzoyl)oxy)pentyl)amino)propyl anthracene-9-carboxylate] | 77.9 ± 6.1% | 74.0 ± 2.6% | 339 nM | 2.10 | 4.45 | 82.0 ± 2.0% | 58.2 ± 5.9% | 23.4 nM | negligible | 241 nM | 81.2 nM | – | – | – | – | – | – | – | – | –
COc1cccc2c1C(=O)c1c(O)c3c(c(O)c1C2=O)C[C@@](O)(C(=O)CO)C[C@@H]3O[C@H]1C[C@H](N)[C@H](O)[C@H](C)O1 [doxo, doxorubicin] | – | – | – | – | – | – | – | – | – | – | – | 80 ± 3.6% | 850 ± 84 nM | 300 nM | 13.5 | 80 ± 2.5% | 2470 ± 250 nM | 500 nM | 73 | 63 ± 6.6 nM
